Tested on: Rats
Assay: Open field locomotor activity (distance moved, zones crossed) with or without cocaine
Type: in vivo
Conditions: open field 1 hour after dosing, five minute test
Protocol: Using (9aR,12aS)-4,5,6,7,9,9a,10,11,12,12a-decahydrocyclopenta[c][1,4]diazepino[6,7,1-ij]quinoline hydrochloride (Compound 1) as an example, the Rats were dosed either with vehicle or with cocaine in the presence or absence of Compound 1 (1.7 mg/kg. sc). One hour after dosing (i.p. & s.c.), rats were put in a open field, where distance moved and zones crossed were recorded by the ethovision program.
Animals were brought to the lab room 1 hour before the start of the experiment. Rats were injected with compound(s) 1 hour before being placed in the open field. Rats were then placed in open field, and the test lasted for five minutes.

SMILES: Cl.c1cc2c3c(c1)[C@H]1CCC[C@H]1CN3CCNC2 [Compound 1, (9aR,12aS)-4,5,6,7,9,9a,10,11,12,12a-decahydrocyclopenta[c][1,4]diazepino[6,7,1-ij]quinoline hydrochloride]
- reversal of the hyperactivity produced by cocaine (Compound 1 1.7 mg/kg sc + cocaine 3 mg/kg ip): completely reversed
- effect on locomotor activity alone (Compound 1 1.7 mg/kg sc + vehicle): no effect

From patent US20070167438A1, “Treatment of substance abuse” (Wyeth, priority 2006, published 2007)
